# In patent publication US6627441B1, “Increasing levels of growth regulator and/or water stress during embryo development” (priority 1998, dated 2003):
# Experiments:
# [1] = test system: white spruce somatic embryos; assay: Effect of ABA concentration and PEG medium water potential on maturation frequency and precocious germination (Example 1); assay type: cell-based; conditions: for mean maturation frequency / precocious germination (appearance of embryos): 6 weeks; for mean maturation frequency: embryos per dish; for total of means (maturation frequency): summed over PEG medium water potentials 230-310
# Protocol: For maturation, the ½ LM basal medium was supplemented with 250 mg/L glutamine and 500 mg/L casein hydrolysate and 3% sucrose. Amino acids were filter sterilized and added to cooled media. ABA (Sigma A 2784) stock solutions were prepared by first dissolving ABA in concentrated NaOH. ABA was added after autoclaving. The purity and source of (+)-ABA can influence results. Purer (+)-ABA would be required in lower amounts. Actual levels need to be determined depending on the source of ABA, the components of the culture medium, and species being studied. […] It is also possible to complement the maturation medium by incorporating auxin and/or cytokinin, or plant growth promoters having auxin-like and cytokinin-like activity. Similarly, gibberellin is in principle also a suitable complementary growth promoter, and an empirical approach taking into account such factors as plant species, environment, and so forth should be used to determine the concentration etc. of gibberellin.
# For maturation, the solidified culture medium in 9 cm petri dishes was overlaid with a filter paper support to facilitate transfers to fresh media. Onto this was pipetted 0.75 mL of a 20% suspension of precultured cells resuspended in fresh hormone-free preculture medium with 3% sucrose. Cultures were incubated at 25 ° C. in the dark and transferred to fresh medium every two weeks.
# Thus, immature white spruce somatic embryos were cultured on medium containing 8, 16, 24, and 32 μM ABA. […] Embryos were transferred to fresh medium of the same composition and were cultured for a total of six weeks. The number of embryos per dish were then counted and the appearance of the embryos was recorded. Results are for three to eight dishes per treatment. A total of 2439 mature embryos were recorded.
# [2] = test system: white spruce somatic embryos; assay: Varying ABA and PEG during development, precocious germination observations (Example 2); assay type: cell-based; conditions: 6 weeks
# Protocol: In order to test the above hypothesis, various concentrations of PEG and ABA were tested and modified during development of white spruce somatic embryos.
# The starting treatments were prepared as outlined in Table 2.
# The embryos were transferred to fresh medium every two weeks over a six week period. Observations were then recorded. The treatments consisted of the following ABA concentrations and media water potentials, with three replicates per treatment.
# somatic embryos = assay: High intensity water stressing and ABA, inhibition of precocious germination (Example 3); assay type: cell-based, white spruce and Norway spruce
# Protocol: Somatic embryos were plated on medium containing PEG adjusted to 290 mmol/kg PEG and 16 μM ABA then either transferred to fresh medium of the same composition every two weeks, or transferred every two weeks to medium containing increasing ABA and PEG as outlined in Table 3.
# [3] = test system: white spruce somatic embryos; assay: Germination and transfer to soil after increasing PEG/ABA culture (Example 8); assay type: cell-based
# Protocol: In another experiment, white spruce somatic embryos were transferred through the 1/20 hormone increasing PEG/ABA liquid maturation culture (Example 7, treatment 8), then plated onto 20-40 μM ABA, 290-540 mmol/kg PEG transfer schedule (Example 4, treatment 6) followed by desiccation at 4° C. 203 embryos were selected and germinated at 4-12° C. for 4 weeks and produced roots and shoots with needles at a frequency of 191/203=94%. White spruce somatic seedlings produced subsequently using these methods survived transfer to soil in a greenhouse and underwent continued growth at frequencies of 95-100%. However, prolonging maturation of cotyledonary embryos in the presence of high water stress and ABA was detrimental to germination. Thus, after seven to eight weeks of culture of spruce somatic embryos the germination vigour (seedling elongation) and frequencies decreased. Late stage water stress of mid to late cotyledonary stage embryos to below about 30-40% moisture content preferably should not be carried out in the presence of a replenishing source of ABA. This will presumably prevent build up of endogenous ABA, and allow endogenous ABA levels to naturally decline.
structure (smiles),measurement,setting,value
"CC1=CC(=O)CC(C)(C)[C@@]1(O)/C=C/C(C)=C\C(=O)O [ABA, abscisic acid]",mean maturation frequency,"[1]; ABA 8 μm, PEG medium water potential 230 (mmol/kg)",29.7
same,mean maturation frequency,"[1]; ABA 8 μm, PEG medium water potential 260 (mmol/kg)",53.0
same,mean maturation frequency,"[1]; ABA 8 μm, PEG medium water potential 290 (mmol/kg)",44.3
same,mean maturation frequency,"[1]; ABA 8 μm, PEG medium water potential 310 (mmol/kg)",10.7
same,precocious germination (appearance of embryos),"[1]; ABA 8 μm, PEG medium water potential 310 (mol/kg)",greening
same,total of means (maturation frequency),[1]; ABA 8 μm,137.7
same,mean maturation frequency,"[1]; ABA 16 μm, PEG medium water potential 230 (mmol/kg)",15.6
same,mean maturation frequency,"[1]; ABA 16 μm, PEG medium water potential 260 (mmol/kg)",44.0
same,precocious germination (appearance of embryos),"[1]; ABA 16 μm, PEG medium water potential 260 (mol/kg)",greening
same,mean maturation frequency,"[1]; ABA 16 μm, PEG medium water potential 290 (mmol/kg)",20.1
same,mean maturation frequency,"[1]; ABA 16 μm, PEG medium water potential 310 (mmol/kg)",0
same,total of means (maturation frequency),[1]; ABA 16 μm,79.7
same,mean maturation frequency,"[1]; ABA 24 μm, PEG medium water potential 230 (mmol/kg)",28.0
same,precocious germination (appearance of embryos),"[1]; ABA 24 μm, PEG medium water potential 230 (mol/kg)",greening
same,mean maturation frequency,"[1]; ABA 24 μm, PEG medium water potential 260 (mmol/kg)",22.8
same,mean maturation frequency,"[1]; ABA 24 μm, PEG medium water potential 290 (mmol/kg)",28.7
same,mean maturation frequency,"[1]; ABA 24 μm, PEG medium water potential 310 (mmol/kg)",1.0
same,total of means (maturation frequency),[1]; ABA 24 μm,80.5
same,mean maturation frequency,"[1]; ABA 32 μm, PEG medium water potential 230 (mmol/kg)",28.0
same,mean maturation frequency,"[1]; ABA 32 μm, PEG medium water potential 260 (mmol/kg)",22.7
same,mean maturation frequency,"[1]; ABA 32 μm, PEG medium water potential 290 (mmol/kg)",8.6
same,mean maturation frequency,"[1]; ABA 32 μm, PEG medium water potential 310 (mmol/kg)",2.5
same,total of means (maturation frequency),[1]; ABA 32 μm,61.8
same,"observations (greening, precocious germination)","[2]; Expt A (start PEG 260 mmol/kg, ABA 16 μM), 1. Control, fresh medium of the same composition","green, cotyledon elongation"
same,"observations (greening, precocious germination)","[2]; Expt A (start PEG 260 mmol/kg, ABA 16 μM), 2. Raise ABA (24, 32 μM)",slight or no greening
same,"observations (greening, precocious germination)","[2]; Expt A (start PEG 260 mmol/kg, ABA 16 μM), 5. Raise PEG (290, 320 mmol/kg), raise ABA (24, 32 μM)",slight or no greening
same,"observations (greening, precocious germination)","[2]; Expt B (start PEG 260 mmol/kg, ABA 24 μM), 1. Control, fresh medium of the same composition",greening
same,"observations (greening, precocious germination)","[2]; Expt B (start PEG 260 mmol/kg, ABA 24 μM), 2. Raise ABA (32, 32 μM)",no greening
same,"observations (greening, precocious germination)","[2]; Expt B (start PEG 260 mmol/kg, ABA 24 μM), 5. Raise PEG (290, 320 mmol/kg), raise ABA (32, 32 μM)",slight or no greening
same,"observations (greening, precocious germination)","[2]; Expt C (start PEG 290 mmol/kg, ABA 8 μM), 2. Raise ABA (16, 24 μM)",greening
same,"observations (greening, precocious germination)","[2]; Expt C (start PEG 290 mmol/kg, ABA 8 μM), Raise PEG (12, 14%), raise ABA (16, 24 μM)",none or slight greening
same,"observations (greening, precocious germination)","[2]; Expt D (start PEG 290 mmol/kg, ABA 16 μM), 2. Raise ABA (24, 32 μM)",no greening
same,"observations (greening, precocious germination)","[2]; Expt D (start PEG 290 mmol/kg, ABA 16 μM), 4. Raise PEG (290, 320), lower ABA (8, 8 μM)",greening
same,"observations (greening, precocious germination)","[2]; Expt D (start PEG 290 mmol/kg, ABA 16 μM), 5. Raise PEG (290, 320), raise ABA (24, 32 μM)",no greening
same,precocious germination,"somatic embryos; maintained on 290 mmol/kg PEG and 16 μM ABA, fresh medium every two weeks, week 10",precociously germinated
same,precocious germination,"somatic embryos; schedule of increasing ABA (16 to 56 μM) and PEG (290 to 650 mmol/kg), biweekly transfer, 10 weeks",no evidence of precocious germination
same,frequency of roots and shoots with needles,"[3]; Example 7 treatment 8, then 20-40 μM ABA, 290-540 mmol/kg PEG schedule, desiccation at 4° C., germinated at 4-12° C. for 4 weeks",94%
same,survival of transfer to soil in a greenhouse with continued growth,[3]; somatic seedlings produced using increasing PEG/ABA methods,95-100%
